# Source: US6511963B1 (priority 1992, dated 2003)
# Read-outs that look alike come from different tables or passages of the source. Square brackets hold non-standard residues; d marks the D form. Primed or numbered codes have the meaning given here. Ends that are not written are not given here. Peptide text beside a SMILES is read from it. Gla′ = gamma-carboxyglutamate (g in names)
# Tests used:
# [1] = molecular target: T1, NMDA receptor (Rattus norvegicus, UniProt P35439+Q00960); test: biochemical; type: binding
# T1 construct: other: test compound in the absence of spermine; concentration at 50% of maximum stimulation; % Sti; spermine = 100; other: with and without spermine; absence of spermine; % STI; absence
# T1 sequence (Q00960 27-1482, other chains not shown): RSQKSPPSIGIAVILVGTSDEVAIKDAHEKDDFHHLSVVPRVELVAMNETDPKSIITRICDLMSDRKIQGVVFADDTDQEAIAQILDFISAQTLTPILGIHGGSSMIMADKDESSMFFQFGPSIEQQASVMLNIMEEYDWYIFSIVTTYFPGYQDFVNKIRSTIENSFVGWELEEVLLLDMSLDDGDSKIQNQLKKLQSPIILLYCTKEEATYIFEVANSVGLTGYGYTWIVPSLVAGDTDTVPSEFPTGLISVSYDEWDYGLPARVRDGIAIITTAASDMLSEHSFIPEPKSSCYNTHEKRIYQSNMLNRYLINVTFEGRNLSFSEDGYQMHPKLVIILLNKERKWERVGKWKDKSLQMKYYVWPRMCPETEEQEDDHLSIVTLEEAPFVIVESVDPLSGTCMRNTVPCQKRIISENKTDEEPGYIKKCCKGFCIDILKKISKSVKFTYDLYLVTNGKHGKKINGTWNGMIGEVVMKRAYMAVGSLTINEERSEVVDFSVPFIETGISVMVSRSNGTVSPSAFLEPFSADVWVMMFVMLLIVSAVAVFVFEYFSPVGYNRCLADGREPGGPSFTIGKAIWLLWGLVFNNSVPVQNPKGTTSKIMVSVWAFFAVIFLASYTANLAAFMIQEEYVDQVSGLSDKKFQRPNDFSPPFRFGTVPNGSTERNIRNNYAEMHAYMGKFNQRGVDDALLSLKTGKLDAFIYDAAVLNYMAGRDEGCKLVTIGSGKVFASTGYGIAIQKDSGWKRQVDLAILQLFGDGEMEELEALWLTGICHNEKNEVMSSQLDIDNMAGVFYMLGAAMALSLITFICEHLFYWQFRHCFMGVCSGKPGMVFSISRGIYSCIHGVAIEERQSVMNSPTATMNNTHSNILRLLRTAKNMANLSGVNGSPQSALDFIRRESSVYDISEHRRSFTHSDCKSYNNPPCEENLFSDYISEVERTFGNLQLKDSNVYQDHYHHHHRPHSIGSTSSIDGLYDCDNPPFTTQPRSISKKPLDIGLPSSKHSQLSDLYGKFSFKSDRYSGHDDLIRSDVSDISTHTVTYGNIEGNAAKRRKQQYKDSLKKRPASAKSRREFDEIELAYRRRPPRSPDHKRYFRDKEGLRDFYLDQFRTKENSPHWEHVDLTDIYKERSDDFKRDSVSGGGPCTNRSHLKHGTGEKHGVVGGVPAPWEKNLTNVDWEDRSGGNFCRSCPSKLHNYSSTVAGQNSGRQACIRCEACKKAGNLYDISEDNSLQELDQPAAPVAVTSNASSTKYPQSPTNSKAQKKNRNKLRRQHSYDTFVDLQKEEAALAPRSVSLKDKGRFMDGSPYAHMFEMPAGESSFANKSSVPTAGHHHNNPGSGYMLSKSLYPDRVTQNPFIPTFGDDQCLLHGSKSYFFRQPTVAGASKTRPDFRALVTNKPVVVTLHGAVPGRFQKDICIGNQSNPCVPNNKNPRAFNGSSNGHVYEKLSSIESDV
# [2] = tested on: NMDA receptor; type: binding, rat
# [3] = read-out: IC50, inhibition of spermine-enhanced [3H]MK-801 binding
compound,measurement,setting,value
CC[C@H](C)[C@H](NC(=O)[C@H](CCC(N)=O)NC(=O)[C@H](CO)NC(=O)[C@@H](NC(=O)[C@H](CC(N)=O)NC(=O)[C@H](CO)NC(=O)[C@H](CCC(N)=O)NC(=O)[C@H](CC(C)C)NC(=O)[C@H](CC(C(=O)O)C(=O)O)NC(=O)[C@H](CC(C(=O)O)C(=O)O)NC(=O)[C@H](CCC(=O)O)NC(=O)CN)C(C)C)C(=O)N[C@@H](CCCNC(=N)N)C(=O)N[C@@H](C)C(=O)N[C@@H](CCCCN)C(=O)N[C@@H](CO)C(=O)N[C@@H](CC(N)=O)C(N)=O [310 helix ConG] (HELM PEPTIDE1{G.E.[O=C(O)C(C[C@H](N[*:1])C(=O)[*:2])C(=O)O].[O=C(O)C(C[C@H](N[*:1])C(=O)[*:2])C(=O)O].L.Q.S.N.V.S.Q.I.R.A.K.S.N.[am]}$$$$V2.0),Emax,[1]; read-out: % Sti,0%
same,% Inh,[2],25%
same,IC50,[2]; read-out: Spermine IC,20000 nM
"CC[C@H](C)[C@H](NC(=O)[C@H](CC(C)C)NC(=O)[C@H](C)NC(=O)[C@H](CCC(N)=O)NC(=O)[C@H](CC(N)=O)NC(=O)[C@H](CC(C(=O)O)C(=O)O)NC(=O)[C@H](CCC(N)=O)NC(=O)[C@H](CC(C)C)NC(=O)[C@H](CC(C(=O)O)C(=O)O)NC(=O)[C@H](CC(C(=O)O)C(=O)O)NC(=O)[C@H](CCC(=O)O)NC(=O)CN)C(=O)N[C@@H](CCCNC(=N)N)C(=O)N[C@@H](CC(C(=O)O)C(=O)O)C(=O)N[C@@H](CCCCN)C(=O)N[C@@H](CO)C(=O)N[C@@H](CC(N)=O)C(N)=O [Ala10-Con-G, GEggLQgNQALIRgKSN]",Emax,[1]; read-out: % Sti,0%
same,% Inh,[2],100%
same,IC50,[2]; read-out: Spermine IC,1100 ± 300 nM
"CC[C@H](C)[C@H](NC(=O)[C@H](CC(C)C)NC(=O)[C@H](CC(C(=O)O)C(=O)O)NC(=O)[C@H](CCC(N)=O)NC(=O)[C@H](CC(N)=O)NC(=O)[C@H](CC(C(=O)O)C(=O)O)NC(=O)[C@H](CCC(N)=O)NC(=O)[C@H](CC(C)C)NC(=O)[C@H](CC(C(=O)O)C(=O)O)NC(=O)[C@H](CC(C(=O)O)C(=O)O)NC(=O)[C@H](CCC(=O)O)NC(=O)CNC(=O)[C@@H](N)CC(=O)N[C@@H]1O[C@H](CO)[C@@H](O)[C@H](O)[C@H]1NC(C)=O)C(=O)N[C@@H](CCCNC(=N)N)C(=O)N[C@@H](CC(C(=O)O)C(=O)O)C(=O)N[C@@H](CCCCN)C(=O)N[C@@H](CO)C(=O)N[C@@H](CC(N)=O)C(N)=O [Asn(GlcNAc)^o-Con-G, N(GlcOc)-GEggLQgNQgLIRgKSN]",% Sti,[1]; forebrain membranes,0%
same,% Inh,[2],38%
same,IC50,[2]; read-out: Spermine IC,8800 nM
"CC[C@H](C)[C@H](NC(=O)[C@H](CC(C)C)NC(=O)[C@@H](CCC(=O)O)NC(=O)[C@H](CCC(N)=O)NC(=O)[C@H](CC(N)=O)NC(=O)[C@@H](CCC(=O)O)NC(=O)[C@H](CCC(N)=O)NC(=O)[C@H](CC(C)C)NC(=O)[C@@H](CCC(=O)O)NC(=O)[C@@H](CCC(=O)O)NC(=O)[C@@H](CCC(=O)O)NC(=O)CN)C(=O)N[C@@H](CCCNC(=N)N)C(=O)N[C@H](CCC(=O)O)C(=O)N[C@@H](CCCCN)C(=O)N[C@@H](CO)C(=O)N[C@@H](CC(N)=O)C(N)=O [D-Glu3,4,7,10,14-Con-G, GdEdEdELQdENQdELIRdEKSN]",stimulation of [3H]MK-801 binding in the absence of spermine,[1],stimulated
same,Emax,[1]; read-out: % Sti,30%
same,% Inh,[2],0%
same,inhibition of spermine-induced [3H]MK-801 binding,[2],no inhibition
"CC[C@H](C)[C@H](NC(=O)[C@H](CC(C)C)NC(=O)[C@H](CCC(=O)O)NC(=O)[C@H](CCC(N)=O)NC(=O)[C@H](CC(N)=O)NC(=O)[C@H](CCC(=O)O)NC(=O)[C@H](CCC(N)=O)NC(=O)[C@H](CC(C)C)NC(=O)[C@H](CCC(=O)O)NC(=O)[C@H](CCC(=O)O)NC(=O)[C@H](CCC(=O)O)NC(=O)CN)C(=O)N[C@@H](CCCNC(=N)N)C(=O)N[C@@H](CCC(=O)O)C(=O)N[C@@H](CCCCN)C(=O)N[C@@H](CO)C(=O)N[C@@H](CC(N)=O)C(N)=O [Glu3,4,7,10,14-Con-G]",Emax,[1]; read-out: % STI,79%
same,Emax,[1]; read-out: % Sti,79%
same,% INH,[2],22%
same,% Inh,[2],22%
same,IC50,[2]; read-out: IC50,8500 nM
same,IC50,[2]; read-out: Spermine IC,8500 nM
"CC[C@H](C)[C@H](N)C(=O)N[C@@H](CCCNC(=N)N)C(=O)N[C@@H](CCC(=O)O)C(=O)N[C@@H](CCCCN)C(=O)N[C@@H](CO)C(=O)N[C@@H](CC(N)=O)C(N)=O [Glul4-Con-G(12-17), IREKSN]",stimulation of [3H]MK-801 binding in the absence of spermine,[1],stimulated
same,Emax,[1]; read-out: % Sti,30%
same,% Inh,[2],0%
same,inhibition of spermine-induced [3H]MK-801 binding,[2],no inhibition
"CC[C@H](C)[C@H](NC(=O)[C@H](CC(C)C)NC(=O)[C@H](CO)NC(=O)[C@H](CCC(N)=O)NC(=O)[C@H](CC(N)=O)NC(=O)[C@H](CC(C(=O)O)C(=O)O)NC(=O)[C@H](CCC(N)=O)NC(=O)[C@H](CC(C)C)NC(=O)[C@H](CC(C(=O)O)C(=O)O)NC(=O)[C@H](CC(C(=O)O)C(=O)O)NC(=O)[C@H](CCC(=O)O)NC(=O)CN)C(=O)N[C@@H](CCCNC(=N)N)C(=O)N[C@@H](CC(C(=O)O)C(=O)O)C(=O)N[C@@H](CCCCN)C(=O)N[C@@H](CO)C(=O)N[C@@H](CC(N)=O)C(N)=O [Ser10-Con-G, GEggLQgNQSLIRgKSN]",Emax,[1]; read-out: % Sti,0%
same,% Inh,[2],100%
same,IC50,[2]; read-out: Spermine IC,1800 ± 200 nM
"CC[C@H](C)[C@H](NC(=O)[C@H](CC(C)C)NC(=O)[C@H](CC(C(=O)O)C(=O)O)NC(=O)[C@H](CCC(N)=O)NC(=O)[C@H](CC(N)=O)NC(=O)[C@H](CC(C(=O)O)C(=O)O)NC(=O)[C@H](CCC(N)=O)NC(=O)[C@H](CC(C)C)NC(=O)[C@H](CC(C(=O)O)C(=O)O)NC(=O)[C@H](COP(=O)(O)O)NC(=O)[C@H](CCC(=O)O)NC(=O)CN)C(=O)N[C@@H](CCCNC(=N)N)C(=O)N[C@@H](CC(C(=O)O)C(=O)O)C(=O)N[C@@H](CCCCN)C(=O)N[C@@H](CO)C(=O)N[C@@H](CC(N)=O)C(N)=O [Ser(p)3-Con-G, GES(p)gLQgNQgLJRgKSN]",% STI,[1]; forebrain membranes,68 ± 8.4%
same,% Sti,[1]; forebrain membranes,68 ± 8.4%
same,% INH,[2],34 ± 2.3%
same,% Inh,[2],34 ± 2.3%
"CC[C@H](C)[C@H](NC(=O)[C@H](CC(C)C)NC(=O)[C@H](CC(C(=O)O)C(=O)O)NC(=O)[C@H](CCC(N)=O)NC(=O)[C@H](CC(N)=O)NC(=O)[C@H](COP(=O)(O)O)NC(=O)[C@H](CCC(N)=O)NC(=O)[C@H](CC(C)C)NC(=O)[C@H](CC(C(=O)O)C(=O)O)NC(=O)[C@H](CC(C(=O)O)C(=O)O)NC(=O)[C@H](CCC(=O)O)NC(=O)CN)C(=O)N[C@@H](CCCNC(=N)N)C(=O)N[C@@H](CC(C(=O)O)C(=O)O)C(=O)N[C@@H](CCCCN)C(=O)N[C@@H](CO)C(=O)N[C@@H](CC(N)=O)C(N)=O [Ser(p)7-Con-G, GEggLQS(p)NQgLIRgKSN]",% Sti,[1]; forebrain membranes,0%
same,% Inh,[2],50±3.8%
same,inhibition of [3H]MK-801 binding produced by maximally effective spermine,[2],50%
same,IC50,[2]; [3],1040 ± 300 nM
"CC[C@H](C)[C@H](NC(=O)[C@H](CC(C)C)NC(=O)[C@H](COP(=O)(O)O)NC(=O)[C@H](CCC(N)=O)NC(=O)[C@H](CC(N)=O)NC(=O)[C@H](CC(C(=O)O)C(=O)O)NC(=O)[C@H](CCC(N)=O)NC(=O)[C@H](CC(C)C)NC(=O)[C@H](CC(C(=O)O)C(=O)O)NC(=O)[C@H](CC(C(=O)O)C(=O)O)NC(=O)[C@H](CCC(=O)O)NC(=O)CN)C(=O)N[C@@H](CCCNC(=N)N)C(=O)N[C@@H](CC(C(=O)O)C(=O)O)C(=O)N[C@@H](CCCCN)C(=O)N[C@@H](CO)C(=O)N[C@@H](CC(N)=O)C(N)=O [Ser(p)10-Con-G, GEggLQgNQS(p)LIRgKSN]",% Sti,[1]; forebrain membranes,0%
same,% Inh,[2],100%
same,IC50,[2]; [3],560 ± 200 nM
"CC[C@H](C)[C@H](NC(=O)[C@H](CC(C)C)NC(=O)[C@H](CC(C(=O)O)C(=O)O)NC(=O)[C@H](CCC(N)=O)NC(=O)[C@H](CC(N)=O)NC(=O)[C@H](CC(C(=O)O)C(=O)O)NC(=O)[C@H](CCC(N)=O)NC(=O)[C@H](CC(C)C)NC(=O)[C@H](CC(C(=O)O)C(=O)O)NC(=O)[C@H](CC(C(=O)O)C(=O)O)NC(=O)[C@H](CCC(=O)O)NC(=O)CN)C(=O)N[C@@H](CCCNC(=N)N)C(=O)N[C@@H](COP(=O)(O)O)C(=O)N[C@@H](CCCCN)C(=O)N[C@@H](CO)C(=O)N[C@@H](CC(N)=O)C(N)=O [Ser(p)14-Con-G, GEggLQgNQgLIRS(p)KSN]",% Sti,[1]; forebrain membranes,0%
same,% Inh,[2],31 ± 0.5%
same,inhibition of [3H]MK-801 binding produced by maximally effective spermine,[2],31%
same,IC50,[2]; [3],1120 ± 50 nM
"NCCCCNCCCN [Spermidine, reference compound]",Emax,[1]; read-out: % Sti,97%
same,% Inh,[2],0%
"NCCCNCCCCNCCCN [Spermine, reference compound]",% Sti,[1]; forebrain membranes,100%
same,% Inh,[2],0%
GEggL-AA-gKSN (GEXXLAAXKSN; gamma-carboxyglutamate residues) [ConG(1-5)AA(14-17)],% Sti,[1],0%
GEggL-AAA-gKSN (GEXXLAAAXKSN; gamma-carboxyglutamate residues) [ConG(1-5)AAAA(14-17)],% Sti,[1],0%
GEggL-BB-gKSN [ConG(1-5)BB(14-17)],% Sti,[1],0%
GEggL-GG-gKSN (GEXXLGGXKSN; gamma-carboxyglutamate residues) [ConG(1-5)GG(14-17)],% Sti,[1],0%
GEggL-GGGG-gKSN (GEXXLGGGGXKSN; gamma-carboxyglutamate residues) [ConG(1-5)GGGG(14-17)],% Sti,[1],0%
GEggL-cyclic (GEXXL; cyclic; gamma-carboxyglutamate residues) [Cyclic ConG(1-5)],activity in [3H]MK-801 binding (spanning cell of Table II),[1],inactive
GEggLQ-AAAAA-gKSN (GE[Gla′][Gla′]LQAAAAA[Gla′]KSN) [ConG(1-6)AS(14-17)],% Sti,[1],0%
GEggLQ-AAAAAAA-gKSN (GE[Gla′][Gla′]LQAAAAAAA[Gla′]KSN) [ConG(1-6)A7(14-17)],% Sti,[1],0%
"IAEASN [Ala13,15, Glul4-Con-G(12-17)]",activity in [3H]MK-801 binding (spanning cell of Table II),[1],inactive
"IAEKSN [Ala13, Glul4-Con-G(12-17)]",activity in [3H]MK-801 binding (spanning cell of Table II),[1],inactive
"IREASN [Glu 14, Alal5-Con-G(12-17)]",activity in [3H]MK-801 binding (spanning cell of Table II),[1],inactive
RSgNK (RS[Gla′]NK) [scrambled Con-G],activity in [3H]MK-801 binding (spanning cell of Table II),[1],inactive
RgKSN (R[Gla′]KSN) [Con-G(13-17)],activity in [3H]MK-801 binding (spanning cell of Table II),[1],inactive
